Test system: soluble sericin
Test: Hydrolytic activity of enzymes on soluble sericin (absorbance of supernatant at 271 nm)
Type: biochemical
Conditions: 10% enzyme, pH 7, 8 hours, 30-70° C. tested
Method: To confirm the degree of hydrolysis of sericin according to the kinds of enzyme, a total of 7 kinds of endopeptidase type alcalase, esperase, protamax, bromelain, papain, neutrase and exopeptidase type flavourzyme were prepared. At this time, sericin extracted from the sericin prepared in Preparation Example 1 at 120° C. for 30 minutes was used as a substrate sample, and after centrifugation, insoluble sericin was removed and soluble sericin was used. […]
The reactants after hydrolysis were subjected to enzyme inactivation at 85° C. for 10 min, and then the supernatant was collected by centrifugation (10,000 rpm, 10 min). After diluting the supernatant 20 times with D/W, the absorbance value measured at 271 nm, which is the maximum absorption wavelength of sericin, with a spectrophotometer (UV/VIS Nano Spectrophotometer, Nabi, Microdigital) was used as a measure of solubility.
In order to minimize the change in pH during the enzyme reaction of Preparation Example 2, the pH was adjusted using 1 M acetic acid and an average of 26.5% ammonia hydroxide. 1 mg of soluble sericin was treated with 0.1 mg of an enzyme (10% of sericin concentration), […], and then the supernatant was collected to measure the absorbance with pH change. […]

bromelain
temperature at which high hydrolytic activity was shown: 50 °C

B1: papain: endopeptidase type enzyme (protein, UniProt P00784 134-345, looked up)
Papain: IPEYVDWRQKGAVTPVKNQGSCGSCWAFSAVVTIEGIIKIRTGNLNEYSEQELLDCDRRSYGCNGGYPWSALQLVAQYGIHYRNTYPYEGVQRYCRSREKGPYAAKTDGVRQVQPYNEGALLYSIANQPVSVVLEAAGKDFQLYRGGIFVGPCGNKVDHAVAAVGYGPNYILIKNSWGTGWGENGYIRIKRGTGNSYGVCGLYTSSFYPVKN
temperature at which high hydrolytic activity was shown: 60 °C

— patent US20250319012A1, “METHOD FOR PREPARING LOW-MOLECULAR-WEIGHT SILK SERICIN, AND COSMETIC COMPOSITION COMPRISING SERICIN PREPARED THEREBY” (HEWON CO., LTD., priority 2021, published 2025)
